Like-named read-outs stand apart in the source and are kept apart here.
System: Mycobacterium tuberculosis
Type: cell-based
[1] = anti-tuberculosis drug alone, […]

| SMILES | number of intracellular Mycobacterium tuberculosis [1] | number of intracellular Mycobacterium tuberculosis |
| --- | --- | --- |
| NNC(=O)c1ccncc1 [Isoniazid] | the number of Mycobacterium tuberculosis was reduced | – |
| NC(=O)c1cnccn1 [Pyrazinamide] | the number of Mycobacterium tuberculosis was reduced | – |
| CC[C@@H](CO)NCCN[C@@H](CC)CO [Ethambutol] | – | the number of Mycobacterium tuberculosis was reduced |

From patent US10709765B2, “Composition for inhibiting survival or growth of tubercle bacillus by adjusting polarization of macrophage, and method using same” (priority 2016, dated 2020)
